Columns and labels:
[1] = target: T1, HCV polymerase 1A (Δ21 NS5B, H77) (Hepatitis C virus genotype 1a, UniProt P27958); test: biochemical; settings: IC50 1a
T1 construct: 20 to 50 nM Δ21 NS5B
Outline: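 Incorporation of 1 μM ^3H-UTP, with 20 μM each of CTP and ATP on 5 nM template RNA, ran 2–4 h at room temperature. Spermine-precipitated product was filtered and scintillation-counted. IC50 came from tight-binding non-linear regression of cpm against inhibitor concentration.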

[2] = target: T2, HCV polymerase 1B (Δ21 NS5B, BK) (Hepatitis C virus genotype 1b, UniProt P26663); test: biochemical
T2 construct: 20 to 50 nM Δ21 NS5B
T2 sequence (P26663 2420-2989, stated change not applied): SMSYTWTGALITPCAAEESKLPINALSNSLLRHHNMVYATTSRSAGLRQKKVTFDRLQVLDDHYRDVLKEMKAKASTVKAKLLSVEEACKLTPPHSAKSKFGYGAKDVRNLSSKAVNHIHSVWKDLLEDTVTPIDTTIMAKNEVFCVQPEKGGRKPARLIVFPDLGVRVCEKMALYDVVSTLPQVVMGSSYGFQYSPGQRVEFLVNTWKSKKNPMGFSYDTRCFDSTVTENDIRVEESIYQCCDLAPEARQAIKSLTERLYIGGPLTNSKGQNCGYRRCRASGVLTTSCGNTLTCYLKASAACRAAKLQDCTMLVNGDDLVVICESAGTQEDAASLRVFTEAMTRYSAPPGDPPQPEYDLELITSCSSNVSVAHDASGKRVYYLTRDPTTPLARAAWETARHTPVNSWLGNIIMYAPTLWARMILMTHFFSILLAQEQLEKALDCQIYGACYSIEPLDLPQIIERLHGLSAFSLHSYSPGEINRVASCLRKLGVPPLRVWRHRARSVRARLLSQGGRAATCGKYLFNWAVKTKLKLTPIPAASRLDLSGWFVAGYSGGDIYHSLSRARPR
Outline: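 Δ21 NS5B (genotype 1b, BK […]) preincubated 15 min RT with inhibitor, 2 mM MnCl2, pH 7.4, 60–125 μM GTP; started with 20 μM CTP/ATP, 1 μM 3H-UTP, 5 nM template RNA, run 2–4 h RT. Spermine-precipitated RNA filter-captured, scintillation counted; IC50 from tight-binding (Morrison) fit.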

[3] = test system: genotype 1b-Con1 subgenomic replicon cell line; test: microbe, parasite or virus in culture; assay type: cell-based, HCV; settings: Hepatitis C virus, read-out: EC50 1b
[4] = test system: genotype 1a-H77 subgenomic replicon cell line; test: microbe, parasite or virus in culture; assay type: cell-based, HCV; settings: Hepatitis C virus, read-out: EC50 1a

T1 sequence (P27958 2421-2990, stated change not applied): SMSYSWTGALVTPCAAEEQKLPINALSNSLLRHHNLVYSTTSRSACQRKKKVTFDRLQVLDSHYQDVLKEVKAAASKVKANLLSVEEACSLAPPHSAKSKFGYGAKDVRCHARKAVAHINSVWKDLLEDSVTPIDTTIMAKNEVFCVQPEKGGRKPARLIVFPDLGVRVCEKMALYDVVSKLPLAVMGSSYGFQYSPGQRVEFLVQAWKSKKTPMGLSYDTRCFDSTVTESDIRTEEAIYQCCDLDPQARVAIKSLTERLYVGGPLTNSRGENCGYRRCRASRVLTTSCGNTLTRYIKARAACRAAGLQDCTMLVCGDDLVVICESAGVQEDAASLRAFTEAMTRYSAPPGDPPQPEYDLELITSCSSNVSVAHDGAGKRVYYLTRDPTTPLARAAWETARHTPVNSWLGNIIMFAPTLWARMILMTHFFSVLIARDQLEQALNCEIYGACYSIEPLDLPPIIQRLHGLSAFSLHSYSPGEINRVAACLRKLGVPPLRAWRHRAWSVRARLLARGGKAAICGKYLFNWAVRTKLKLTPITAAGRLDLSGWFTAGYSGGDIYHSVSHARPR

CCC(=O)N(c1ccc(NC(=O)c2cc(N3CCC(=O)NC3=O)cc(C(C)(C)C)c2OC)cc1)S(C)(=O)=O [IA-L3-1.70, 3-tert-butyl-5-(2,4-dioxotetrahydropyrimidin-1(2H)-yl)-2-methoxy-N-(4-(N-(methylsulfonyl)propionamido)phenyl)benzamide]
IC50 [1]: > 1000 nM
IC50 [2]: > 1000 nM
EC50 [3]: 10 to 100 nM
EC50 [4]: 100 to 1000 nM

COc1c(C#Cc2cc(F)c(NS(C)(=O)=O)cc2C)cc(N2CCC(=O)NC2=O)cc1C(C)(C)C [IA-L2-1.20, N-(4-((3-tert-butyl-5-(2,4-dioxotetrahydropyrimidin-1(2H)-yl)-2-methoxyphenyl)ethynyl)-2-fluoro-5-methylphenyl)methanesulfonamide]
IC50 [1]: < 10 nM
IC50 [2]: 10 to 100 nM
EC50 [3]: < 10 nM
EC50 [4]: 10 to 100 nM

COc1c(C#Cc2ccc(NS(C)(=O)=O)cc2C(F)(F)F)cc(N2CCC(=O)NC2=O)cc1C(C)(C)C [IA-L2-1.18, N-(4-((3-tert-butyl-5-(2,4-dioxotetrahydropyrimidin-1(2H)-yl)-2-methoxyphenyl)ethynyl)-3-(trifluoromethyl)phenyl)methanesulfonamide]
IC50 [1]: < 10 nM
IC50 [2]: < 10 nM
EC50 [3]: < 10 nM
EC50 [4]: 10 to 100 nM

CC(C)(C)c1cc(N2CCC(=O)NC2=O)cc(C(=O)Nc2ccccc2)c1O [IA-L3-1.3, 3-tert-butyl-5-(2,4-dioxotetrahydropyrimidin-1(2H)-yl)-2-hydroxy-N-phenylbenzamide]
IC50 [1]: > 1000 nM
IC50 [2]: 100 to 1000 nM
EC50 [3]: > 1000 nM
EC50 [4]: > 1000 nM

COc1ccc(-c2cc(N3CCC(=O)NC3=O)cc(C(C)(C)C)c2OC)cc1/C=N/NS(C)(=O)=O [IA-L0-1.5, (E)-N′-((3′-tert-butyl-5′-(2,4-dioxotetrahydropyrimidin-1(2H)-yl)-2′,4-dimethoxy-biphenyl-3-yl)methylene)methanesulfonohydrazide]
IC50 [1]: 100 to 1000 nM
IC50 [2]: 100 to 1000 nM
EC50 [3]: > 1000 nM
EC50 [4]: > 1000 nM

COc1c(-c2ccc3c(c2)CCC3O)cc(-n2ccc(=O)[nH]c2=O)cc1C(C)(C)C (stereo not drawn) [IB-L0-2.36, 1-(3-tert-butyl-5-(1-hydroxy-2,3-dihydro-1H-inden-5-yl)-4-methoxyphenyl)pyrimidine-2,4(1H,3H)-dione]
IC50 [1]: 10 to 100 nM
IC50 [2]: 100 to 1000 nM
EC50 [3]: 10 to 100 nM
EC50 [4]: 100 to 1000 nM

COc1c(C#Cc2ccc(NS(C)(=O)=O)cc2)cc(N2CCC(=O)NC2=O)cc1C(C)(C)C [IA-L2-1.8, N-(4-((3-tert-butyl-5-(2,4-dioxotetrahydropyrimidin-1(2H)-yl)-2-methoxyphenyl)ethynyl)-phenyl)methanesulfonamide]
IC50 [1]: < 10 nM
IC50 [2]: < 10 nM
EC50 [3]: < 10 nM
EC50 [4]: 10 to 100 nM

COc1c(C#Cc2cc(F)c(NS(C)(=O)=O)cc2C)cc(-n2ccc(=O)[nH]c2=O)cc1C(C)(C)C [IB-L2-1.3, N-(4-((3-tert-butyl-5-(2,4-dioxo-3,4-dihydropyrimidin-1(2H)-yl)-2-methoxyphenyl)ethynyl)-2-fluoro-5-methylphenyl)methanesulfonamide]
IC50 [1]: < 10 nM
IC50 [2]: 10 to 100 nM
EC50 [3]: < 10 nM
EC50 [4]: 10 to 100 nM

COc1c(C#Cc2ccc(NS(C)(=O)=O)nc2)cc(N2CCC(=O)NC2=O)cc1C(C)(C)C [IA-L2-1.26, N-(5-((3-tert-butyl-5-(2,4-dioxotetrahydropyrimidin-1(2H)-yl)-2-methoxyphenyl)ethynyl)-pyridin-2-yl)methanesulfonamide 2,2,2-trifluoroacetate]
IC50 [1]: 10 to 100 nM
IC50 [2]: 10 to 100 nM
EC50 [3]: 10 to 100 nM
EC50 [4]: 10 to 100 nM

COc1c(C#Cc2ccccc2)cc(N2CCC(=O)NC2=O)cc1C(C)(C)C [IA-L2-1.4, 1-(3-tert-butyl-4-methoxy-5-(phenylethynyl)phenyl)dihydropyrimidine-2,4(1H,3H)-dione]
IC50 [1]: 100 to 1000 nM
IC50 [2]: 100 to 1000 nM
EC50 [3]: 100 to 1000 nM
EC50 [4]: 100 to 1000 nM

COc1c(C#Cc2ccc(NS(C)(=O)=O)cn2)cc(-n2ccc(=O)[nH]c2=O)cc1C(C)(C)C [IB-L2-1.8, N-(6-((3-tert-butyl-5-(2,4-dioxo-3,4-dihydropyrimidin-1(2H)-yl)-2-methoxyphenyl)ethynyl)-pyridin-3-yl)methanesulfonamide]
IC50 [1]: < 10 nM
IC50 [2]: 10 to 100 nM
EC50 [3]: < 10 nM
EC50 [4]: 10 to 100 nM

COc1c(C(=O)Nc2ccc(OCC#N)cc2)cc(N2CCC(=O)NC2=O)cc1C(C)(C)C [IA-L3-1.38, 3-tert-butyl-N-(4-(cyanomethoxy)phenyl)-5-(2,4-dioxotetrahydropyrimidin-1(2H)-yl)-2-methoxybenzamide]
IC50 [1]: > 1000 nM
IC50 [2]: 100 to 1000 nM
EC50 [3]: > 1000 nM
EC50 [4]: > 1000 nM

COc1c(-c2ccc(/C=N/NS(C)(=O)=O)c(F)c2)cc(-n2ccc(=O)[nH]c2=O)cc1C(C)(C)C [IB-L0-1.3, (E)-N′-((3′-tert-butyl-5′-(2,4-dioxo-3,4-dihydropyrimidin-1(2H)-yl)-3-fluoro-2′-methoxybiphenyl-4-yl)methylene)methanesulfonohydrazide]
IC50 [1]: 10 to 100 nM
IC50 [2]: 10 to 100 nM
EC50 [3]: 10 to 100 nM
EC50 [4]: 100 to 1000 nM

COc1c(C#Cc2ccc(NS(C)(=O)=O)cc2)cc(N2CCC(=O)NC2=O)cc1C1CC1 [IA-L2-1.23, N-(4-((3-cyclopropyl-5-(2,4-dioxotetrahydropyrimidin-1(2H)-yl)-2-methoxyphenyl)ethynyl)phenyl)methanesulfonamide]
IC50 [1]: 100 to 1000 nM
IC50 [2]: 100 to 1000 nM
EC50 [3]: 100 to 1000 nM
EC50 [4]: > 1000 nM

Cc1noc(C)c1S(=O)(=O)Nc1ccc(NC(=O)c2cc(N3CCC(=O)NC3=O)cc(C(C)(C)C)c2O)cc1 [IA-L3-1.13, 3-tert-butyl-N-(4-(3,5-dimethylisoxazole-4-sulfonamido)phenyl)-5-(2,4-dioxotetrahydro-pyrimidin-1(2H)-yl)-2-hydroxybenzamide]
IC50 [1]: 100 to 1000 nM
IC50 [2]: < 10 nM
EC50 [3]: > 1000 nM
EC50 [4]: > 1000 nM

COc1c(-c2ccc(NC(=O)NS(C)(=O)=O)cc2)cc(-n2ccc(=O)[nH]c2=O)cc1C(C)(C)C [IB-L0-1.7, N-(3′-tert-butyl-5′-(2,4-dioxo-3,4-dihydropyrimidin-1(2H)-yl)-2′-methoxybiphenyl-4-ylcarbamoyl)methanesulfonamide]
IC50 [1]: 10 to 100 nM
IC50 [2]: 10 to 100 nM
EC50 [3]: 100 to 1000 nM
EC50 [4]: > 1000 nM

COc1c(-c2ccc3c(c2)CCC3(C)CNS(C)(=O)=O)cc(-n2ccc(=O)[nH]c2=O)cc1C(C)(C)C (stereo not drawn) [IB-L0-2.25, N-((5-(3-tert-butyl-5-(2,4-dioxo-3,4-dihydropyrimidin-1(2H)-yl)-2-methoxyphenyl)-1-methyl-2,3-dihydro-1H-inden-1-yl)methyl)methanesulfonamide]
IC50 [1]: 10 to 100 nM
IC50 [2]: 10 to 100 nM
EC50 [3]: 10 to 100 nM
EC50 [4]: 100 to 1000 nM

COc1c(C(=O)Nc2scc(CNS(C)(=O)=O)c2S(N)(=O)=O)cc(N2CCC(=O)NC2=O)cc1C(C)(C)C [IA-L3-1.90, 3-tert-butyl-5-(2,4-dioxotetrahydropyrimidin-1(2H)-yl)-2-methoxy-N-(4-(methylsulfonamidemethyl)-3-sulfamoylthiophen-2-yl)benzamide]
IC50 [1]: 10 to 100 nM
IC50 [2]: 10 to 100 nM
EC50 [3]: 100 to 1000 nM
EC50 [4]: > 1000 nM

CC(C)(C)c1cc(NC(=O)c2ccc(NS(C)(=O)=O)cc2)cc(N2CCC(=O)NC2=O)c1 [IA-L4-1.1, N-(3-tert-butyl-5-(2,4-dioxotetrahydropyrimidin-1(2H)-yl)phenyl)-4-(methylsulfonamido) benzamide]
IC50 [1]: 100 to 1000 nM
IC50 [2]: 100 to 1000 nM
EC50 [3]: > 1000 nM
EC50 [4]: > 1000 nM

COc1c(N(C)C(=O)c2ccc(NS(C)(=O)=O)cc2)cc(N2CCC(=O)NC2=O)cc1C(C)(C)C [IA-L4-1.7, N-(3-tert-butyl-5-(2,4-dioxotetrahydropyrimidin-1(2H)-yl)-2-methoxyphenyl)-N-methyl-4-(methylsulfonamido)benzamide]
IC50 [1]: 100 to 1000 nM
IC50 [2]: > 1000 nM
EC50 [3]: > 1000 nM
EC50 [4]: > 1000 nM

Cc1cc(=O)[nH]c(=O)n1-c1cc(C(=O)Nc2ccc(NS(C)(=O)=O)cc2)c(O)c(C(C)(C)C)c1 [IB-L3-1.4, 3-tert-butyl-2-hydroxy-5-(6-methyl-2,4-dioxo-3,4-dihydropyrimidin-1(2H)-yl)-N-(4-(methylsulfonamido)phenyl)benzamide]
IC50 [1]: 100 to 1000 nM
IC50 [2]: 10 to 100 nM
EC50 [3]: > 1000 nM
EC50 [4]: > 1000 nM

CC(C)(C)c1cc(N2CCC(=O)NC2=O)cc(C(=O)Nc2nccs2)c1O [IA-L3-1.104, 3-tert-butyl-5-(2,4-dioxotetrahydropyrimidin-1(2H)-yl)-2-hydroxy-N-(thiazol-2-yl)benzamide]
IC50 [1]: > 1000 nM
IC50 [2]: 100 to 1000 nM
EC50 [3]: > 1000 nM
EC50 [4]: > 1000 nM

COc1c(-c2ccc3c(c2)CCC3(F)CNS(C)(=O)=O)cc(-n2ccc(=O)[nH]c2=O)cc1C(C)(C)C (stereo not drawn) [IB-L0-2.12, N-((5-(3-tert-butyl-5-(2,4-dioxo-3,4-dihydropyrimidin-1(2H)-yl)-2-methoxyphenyl)-1-fluoro-2,3-dihydro-1H-inden-1-yl)methyl)methanesulfonamide]
IC50 [1]: < 10 nM
IC50 [2]: 10 to 100 nM
EC50 [3]: < 10 nM
EC50 [4]: 10 to 100 nM

CC(C)(C)c1cc(N2CCC(=O)NC2=O)cc(C(=O)Nc2ccc3c(c2)CS(=O)(=O)C3)c1O [IA-L3-2.5, 3-tert-butyl-N-(2,2-dioxo-1,3-dihydrobenzo[c]thiophen-5-yl)-5-(2,4-dioxotetrahydropyrimidin-1(2H)-yl)-2-hydroxybenzamide]
IC50 [1]: > 1000 nM
IC50 [2]: 100 to 1000 nM
EC50 [3]: > 1000 nM
EC50 [4]: > 1000 nM

From patent US8415351B2 (priority 2007, dated 2013)
